Laboratory results as given in the supplement of paper PMC10307832.

Columns and labels:
Assay in all cases: relative viability (nuclei count vs DMSO), 5 days (fraction); higher = more cells survive
[1] = compound: C1=CC2=NC=CN=C2C=C1/C=C/3\C(=O)NC(=O)S3 + COc1cc2c(Oc3ccc(NC(=O)C4(C(=O)Nc5ccc(F)cc5)CC4)cc3F)ccnc2cc1OCCCN1CCOCC1 [Foretinib] (partner 0.25 µM)
Summary of the method: (§1)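 Values are medians from duplicate plates. Each reflects relative viability, defined as the nuclei count of treated wells over that of vehicle wells. Lung cancer cell lines in 1536-well plates were pin-tool dosed one day after seeding with one drug alone or with a fixed anchor-drug dose plus five library-drug doses (not always all listed) in √10 steps, then fixed, stained and imaged at 4× after 5 days.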

BGJ398 + OSI-027 = compound: CCN1CCN(c2ccc(Nc3cc(N(C)C(=O)Nc4c(Cl)c(OC)cc(OC)c4Cl)ncn3)cc2)CC1 [BGJ398] + COc1cccc2cc(-c3nc([C@H]4CC[C@H](C(=O)O)CC4)n4ncnc(N)c34)[nH]c12 [OSI-027] (partner 0.5 µM)
Summary of the method: as §1

BGJ398 + Lapatinib = compound: CCN1CCN(c2ccc(Nc3cc(N(C)C(=O)Nc4c(Cl)c(OC)cc(OC)c4Cl)ncn3)cc2)CC1 [BGJ398] + CS(=O)(=O)CCNCc1ccc(-c2ccc3ncnc(Nc4ccc(OCc5cccc(F)c5)c(Cl)c4)c3c2)o1 [Lapatinib] (partner 2 µM)
Summary of the method: as §1

BGJ398 + Pemetrexed = compound: CCN1CCN(c2ccc(Nc3cc(N(C)C(=O)Nc4c(Cl)c(OC)cc(OC)c4Cl)ncn3)cc2)CC1 [BGJ398] + Nc1nc2[nH]cc(CCc3ccc(C(=O)N[C@@H](CCC(=O)O)C(=O)O)cc3)c2c(=O)[nH]1 [Pemetrexed] (partner 0.2 µM)
Summary of the method: as §1

Row | Cell Line | relative viability ([1]; first compound 0.02 µM) | relative viability ([1]; first compound 0.06325 µM) | relative viability ([1]; first compound 0.2 µM) | relative viability ([1]; first compound 0.6325 µM) | relative viability ([1]; first compound 2 µM) | relative viability (BGJ398 + OSI-027; first compound 0.01 µM) | relative viability (BGJ398 + OSI-027; first compound 0.03162 µM) | relative viability (BGJ398 + OSI-027; first compound 0.1 µM) | relative viability (BGJ398 + OSI-027; first compound 0.3162 µM) | relative viability (BGJ398 + OSI-027; first compound 1 µM) | relative viability (BGJ398 + Lapatinib; first compound 0.01 µM) | relative viability (BGJ398 + Lapatinib; first compound 0.03162 µM) | relative viability (BGJ398 + Lapatinib; first compound 0.1 µM) | relative viability (BGJ398 + Lapatinib; first compound 0.3162 µM) | relative viability (BGJ398 + Lapatinib; first compound 1 µM) | relative viability (BGJ398 + Pemetrexed; first compound 0.01 µM) | relative viability (BGJ398 + Pemetrexed; first compound 0.03162 µM) | relative viability (BGJ398 + Pemetrexed; first compound 0.1 µM) | relative viability (BGJ398 + Pemetrexed; first compound 0.3162 µM) | relative viability (BGJ398 + Pemetrexed; first compound 1 µM)
1 | HCC-78 | 0.54 | 0.469 | 0.538 | 0.534 | 0.4 | 0.369 | 0.348 | 0.346 | 0.349 | 0.366 | 0.568 | 1.04 | 1 | 0.707 | 0.581 | 1.02 | 0.885 | 0.88 | 0.91 | 0.896
2 | HCC-366 | 0.916 |  | 0.863 | 0.901 | 0.985 | 0.843 | 0.964 | 0.96 | 0.822 | 0.979 | 1.11 | 1.07 | 1.07 | 1.06 | 0.924 | 0.161 | 0.168 | 0.163 | 0.172 | 0.132
3 | HCC-827 | 1.09 | 1.05 | 1.02 | 0.95 | 1.04 | 0.633 |  | 0.754 | 0.547 | 0.847 | 0.244 |  | 0.163 | 0.173 | 0.2 | 0.254 |  | 0.277 | 0.184 | 0.272
4 | HOP-62 | 1.06 | 1.22 | 1.11 | 1.01 | 1.07 | 0.792 | 0.986 | 0.916 | 0.83 | 0.889 | 0.965 | 1.16 | 1.18 | 1.02 | 1.04 | 0.375 | 0.382 | 0.335 | 0.36 | 0.379
5 | IA-LM | 1.15 | 1.28 | 1.15 | 1.2 | 1.25 |  |  |  |  |  | 0.864 | 0.742 | 0.846 | 0.704 | 0.758 |  |  |  |  | 
6 | LC-2-ad | 0.889 | 0.951 | 0.995 | 0.917 | 0.699 | 0.763 | 0.935 | 0.832 | 0.779 | 0.829 | 0.937 | 1.02 | 1 | 0.978 | 0.912 | 0.292 | 0.285 | 0.245 | 0.271 | 0.31
7 | LCLC-97TM1 | 0.919 | 0.908 | 0.908 | 0.996 | 0.688 | 0.381 | 0.578 | 0.464 | 0.567 | 0.528 | 0.525 | 0.745 | 0.901 | 0.979 | 0.868 | 0.172 | 0.236 | 0.161 | 0.174 | 0.162
8 | LCLC-103H | 0.864 | 0.711 | 0.813 | 0.653 | 0.648 | 0.495 | 0.406 | 0.44 | 0.367 | 0.382 |  |  |  |  |  | 0.459 | 0.503 | 0.401 | 0.494 | 0.541
9 | LK-2 | 1.06 | 1.16 | 1.26 | 1.03 | 0.789 | 0.18 | 0.181 | 0.155 | 0.121 | 0.176 | 0.887 | 0.754 | 0.488 | 0.352 | 0.26 | 0.213 | 0.194 | 0.114 | 0.157 | 0.12
10 | LOU-NH91 | 0.917 | 0.965 | 0.964 | 0.923 | 0.855 | 0.667 |  | 0.734 | 0.478 | 0.728 | 0.733 | 0.771 | 0.731 | 0.727 | 0.688 | 0.375 | 0.407 | 0.408 | 0.376 | 0.381
11 | LU99A | 0.727 | 0.743 | 0.792 | 0.822 | 0.614 | 0.268 | 0.284 | 0.281 | 0.308 | 0.332 | 0.935 | 0.896 | 1.07 | 0.913 | 0.85 | 0.176 | 0.182 | 0.169 | 0.224 | 0.204
12 | NCI-H441 | 0.925 | 1.09 | 1.06 | 0.925 | 0.668 | 0.621 | 0.626 | 0.758 | 0.564 | 0.62 |  |  |  |  |  |  | 0.234 | 0.243 | 0.251 | 0.288
13 | NCI-H522 |  |  |  |  |  | 0.686 | 0.608 | 0.575 | 0.664 | 0.687 |  |  |  |  |  | 0.987 | 0.896 | 0.876 | 0.995 | 0.856
14 | NCI-H727 | 0.954 | 0.852 | 1.04 | 0.853 | 0.588 | 0.595 | 0.791 | 0.543 | 0.519 | 0.745 | 1.05 | 0.799 | 1.22 | 0.789 | 0.648 |  |  |  |  | 
15 | NCI-H1299 | 1.01 | 1.11 | 1.11 | 1.09 | 1.15 |  |  |  |  |  | 0.956 | 0.956 | 0.943 | 0.968 | 0.972 |  |  |  |  | 
16 | NCI-H1623 | 0.756 | 0.855 | 0.953 | 0.82 | 0.799 | 0.45 | 0.384 | 0.414 | 0.386 | 0.452 |  |  |  |  |  |  |  |  |  | 
17 | NCI-H1648 |  |  |  |  |  | 0.245 | 0.292 | 0.246 | 0.26 | 0.235 |  |  |  |  |  | 0.85 |  | 0.821 | 0.896 | 0.651
18 | NCI-H1703 | 0.38 | 0.442 | 0.34 | 0.295 | 0.324 |  |  |  |  |  | 0.988 | 1.32 | 1.04 | 1.05 | 1.36 |  |  |  |  | 
19 | NCI-H1792 |  |  |  |  |  | 0.684 | 0.731 | 0.762 | 0.581 | 0.416 | 0.928 | 0.874 | 0.999 | 0.909 | 0.756 | 0.723 | 0.791 | 0.831 | 0.743 | 0.749
20 | NCI-H2342 | 0.891 | 0.93 | 1.02 | 0.953 | 0.891 | 0.694 | 0.628 | 0.629 | 0.674 | 0.622 |  |  |  |  |  | 0.742 | 0.775 | 0.801 | 0.773 | 0.755
21 | SW 900 | 0.703 | 0.823 | 0.77 | 1.06 | 0.797 | 0.602 | 0.604 | 0.545 | 0.368 | 0.358 |  |  |  |  |  | 0.471 | 0.43 | 0.469 | 0.348 | 0.256
